Results from US20250255932A1, “Granulocyte-Colony Stimulating Factor For The Promotion Of Scarless Tissue Regeneration” (The United States Government As Represented By The …, priority 2024, published 2025).

Legend:
[1] = test system: ear hole injury in WT and CXCR2-KO mice; test: Ear hole closure with topical imiquimod 5% cream; assay type: in vivo
Description: For ear wounding, a standard 2 mm mechanical punch (Roboz, Gaithersburg, MD) was used to create a hole in the center of each outer ear (pinna). Ear hole diameter was measured using a dissection microscope (Nikon) in the horizontal and vertical directions on a weekly basis. Ears were excluded if there were signs of wound infection, tearing of the ear, or abnormal geometric shape. These criteria were pre-established. For the antibiotic experiments, the same protocol as previously published was used (11).
To assess whether the CXCR2-mediated pathway utilized the same molecular mechanism, […] imiquimod 5% cream was rubbed on skin 5 days per week, beginning one week prior to ear hole injury in WT and CXCR2-KO mice. […] Imiquimod-treated CXCR2-KO mice achieved complete ear hole closure at a 90% frequency, which was >2-fold higher than CXCR2-KO mice (FIG. 9B, bottom graphs). Indeed, this 90% complete closure rate in imiquimod-treated CXCR2-KO mice is greater than the individual imiquimod or CXCR2 components combined.

Cxcl2 = conditions: exogenous CFH; cited from earlier work
[2] = test system: stented back wounds on WT mice; test: Stented back wound model; assay type: in vivo
Description: (§1) Next, recombinant G-CSF or PBS (control) was injected daily into the wound beds of WT mice undergoing WIHN for the first 3 days (FIG. 4D). […] This experiment was repeated in the stented back wound model. G-CSF-treated mice healed with >3-fold less scar formation compared to control mice (FIG. 4E). […] Taken together, exogenous G-CSF is sufficient to reduce scar formation and to promote complete tissue regeneration.
(§2) In our single-cell datasets, neutrophils and macrophages were the primary cell types in injured skin to express the G-CSF receptor (Csfr3) (FIG. 8D). […] Immunofluorescence confirmed that macrophages in WT and CXCR2-KO injured skin expressed the G-CSF receptor (FIG. 8E). […] Moreover, wounded tissue was collected at day 4 after injury in the stented back wound model from G-CSF-treated or PBS-treated WT mice. […] Taken together, G-CSF reduces scar formation and promotes tissue regeneration through polarization of infiltrating macrophages into an anti-inflammatory phenotype.
6 mm disposable biopsy punch (Acuderm) was used to make two circular full thickness wounds on the dorsal back skin of mice. Silicon wound splints (Grace Bio-Labs) were sutured with 4-0 Nylon to prevent skin contracture. Wounds were dressed with a sterile occlusive dressing and monitored daily. Borders were monitored by frequently application of permanent marker.
Standard histology and immunostaining protocols were performed, and investigators were blinded during histologic staining. 4% paraformaldehyde was used as the fixative. Briefly, immunohistochemical analysis was performed on 5-10 μm-thick sections of mouse skin. The following primary antibodies were used: rabbit monoclonal anti-Arginase-1 (93668, Cell Signaling Technology), rabbit polyclonal anti-CD80 (8679, ProSci), rabbit polyclonal anti-Histone H3 (ab5103, Abcam), goat polyclonal anti-MPO (AF3667, R&D Systems), Goat polyclonal anti-CD206 (AF2535, R&D Systems), rabbit monoclonal anti-F4/80 (70076, Cell Signaling Technology), rabbit polyclonal anti-COX2 (ab15191, Abcam), rabbit anti-iNOS (2982, Cell Signaling Technology), rabbit polyclonal anti-GCSFR (bs-2574R, Bioss) rabbit monoclonal anti-CD163 (68922, Cell Signaling Technology) and rat anti-Ly6G (551459, BD Pharmingen). […] After staining, images were directly analyzed using a Leica Microsystems DM6 B microscope equipped with a DFC9000 Camera or Keyence imaging system. […] Immunofluorescent images were analyzed using FIJI (40). The signal for the protein of interest was calculated as the percent area occupied by the cells positive for the protein of interest within the tissue section.
The paraffin sections were first de-waxed and hydrated. […] The acquired images were analyzed for fibrosis by quantifying the percent of collagen 1 (PSR) signal within the wounded tissue region. […]

[3] = test system: bone-marrow derived monocytes; test: In vitro polarization of bone-marrow derived monocytes (bulk RNA-seq gene expression); assay type: cell-based, mouse; conditions: monocytes treated with and without G-CSF, gene expression levels (FPKM)
From the text: as §2
Monocytes were lysed immediately by adding TRIzol LS reagent. The samples were vortexed for 20 seconds, 0.2×volumes of chloroform was added, tubes were mixed by inverting and samples were centrifuged at 13,000 rpm at 4° C. for 15 min. The aqueous phase was then purified and the RNA-seq library were made using NEBNext® Low Input RNA Library Prep Kit (E6420S/L), following the manufacturer's instructions.
Fastq files were aligned to the mm10 reference genome using STAR_2.4.0 in basic two Pass mode using the “Encode” options as specified in the manual. Reads overlapping with annotated genes (Ensembl build mm10) were counted using the summarizeOverlaps function from the R package “GenomicAlignments” in strand-specific, paired-end mode. […]

WT mice undergoing WIHN = test: Wound induced hair neogenesis (WIHN), injection into the wound bed; assay type: in vivo; conditions: recombinant G-CSF vs PBS injected daily into wound beds of WT mice for the first 3 days
Description: To assess whether the circulating factor(s) was a cell or protein, plasma from CXCR2-KO and WT (control) mice was collected and injected daily into the wound beds of WT mice undergoing WIHN for the first 3 days after injury (FIG. 4B). The WIHN model was used because the wound bed was more accessible. […] Thus, a circulating protein in CXCR2-KO plasma improves tissue regeneration.
as §1
1-cm^2 full-thickness skin wounds were made as previously described (10). 5-weeks later, de novo hair follicles were identified by whole-mount alkaline phosphatase staining of dermis preparations as previously described.

[4] = test system: epidermolysis bullosa patients; conditions: systemic G-CSF; cited from earlier work

CC(C)Cn1cnc2c(N)nc3ccccc3c21 [Imiquimod, imiquimod]
ear hole closure ([1]; imiquimod 5% cream on skin 5 days per week from one week prior to injury, vs control-treated mice): closed their ear holes even more efficiently than control-treated mice
frequency of complete ear hole closure ([1]; imiquimod-treated CXCR2-KO mice): 90%
complete ear hole closure frequency relative to CXCR2-KO mice ([1]; imiquimod-treated CXCR2-KO mice vs CXCR2-KO mice): > 2 fold

complement factor H [CFH]
fibroblast-specific expression of Cxcl2 (Cxcl2): reduces fibroblast-specific expression of Cxcl2
macrophage recruitment (Cxcl2): no changes in macrophage recruitment
neutrophil recruitment (Cxcl2): reduced neutrophil recruitment
tissue regeneration (Cxcl2): partial tissue regeneration

B1: Granulocyte Colony-Stimulating Factor (protein, UniProt P09920 31-208, looked up)
Granulocyte …: VPLVTVSALPPSLPLPRSFLLKSLEQVRKIQASGSVLLEQLCATYKLCHPEELVLLGHSLGIPKASLSGCSSQALQQTQCLSQLHSGLCLYQGLLQALSGISPALAPTLDLLQLDVANFATTIWQQMENLGVAPTVQPTQSAMPAFTSAFQRRAGGVLAISYLQGFLETARLALHHLA
notes: recombinant G-CSF injected into wound beds of WT mice
less scar formation compared to control mice ([2]; G-CSF vs PBS, scar size at day 28 after injury): > 3 fold
fibrosis in healed skin (picrosirius red staining) ([2]; G-CSF-treated WT mice vs control skin): less fibrosis than control skin
anti-inflammatory macrophages (Cd163 and Mrc1) in wounded tissue ([2]; day 4 after injury, G-CSF-treated vs PBS-treated WT mice): more anti-inflammatory macrophages
average scar diameter ([2]; histological analysis, G-CSF-treated WT mice (PBS ~1.8 mm)): ~0.5 mm
polarization of monocytes [3]: directly polarized in vitro bone-marrow derived monocytes into an anti-inflammatory state
increase in hair follicle regeneration compared to control mice (WT mice undergoing WIHN): 5 fold
blister counts and wound sizes [4]: reduced blister counts and wound sizes
